Measured values as given in US20250041429A1, “COMPOUND HAVING BTK PROTEIN DEGRADATION ACTIVITY, AND MEDICAL USES THEREOF” (UBIX THERAPEUTICS, INC., priority 2021, published 2025).

Target: T1, BTK protein (Homo sapiens, UniProt Q06187)
T1 construct: endogenous in cells; host or cells: TMD-8 cells
Test: Measurement of BTK protein degradation ability in TMD-8 cells (Western blotting)
Format: cell-based
Conditions: harvested after 24 hours; for BTK degradation (%) 1 nM: compound 1 nM; for BTK degradation (%) 10 nM: compound 10 nM; for BTK degradation (%) 100 nM: compound 100 nM
In short: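 BTK levels were measured by immunoblotting of equal-protein RIPA lysates, normalized to GAPDH or β-actin, with chemiluminescent or infrared detection. Lysates came from TMD-8 cells exposed to compound for 24 h at final concentrations of 0.1, 1, 10 μM or 0.0001–0.1 μM, against a DMSO control.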

T1 sequence (Q06187 whole entry): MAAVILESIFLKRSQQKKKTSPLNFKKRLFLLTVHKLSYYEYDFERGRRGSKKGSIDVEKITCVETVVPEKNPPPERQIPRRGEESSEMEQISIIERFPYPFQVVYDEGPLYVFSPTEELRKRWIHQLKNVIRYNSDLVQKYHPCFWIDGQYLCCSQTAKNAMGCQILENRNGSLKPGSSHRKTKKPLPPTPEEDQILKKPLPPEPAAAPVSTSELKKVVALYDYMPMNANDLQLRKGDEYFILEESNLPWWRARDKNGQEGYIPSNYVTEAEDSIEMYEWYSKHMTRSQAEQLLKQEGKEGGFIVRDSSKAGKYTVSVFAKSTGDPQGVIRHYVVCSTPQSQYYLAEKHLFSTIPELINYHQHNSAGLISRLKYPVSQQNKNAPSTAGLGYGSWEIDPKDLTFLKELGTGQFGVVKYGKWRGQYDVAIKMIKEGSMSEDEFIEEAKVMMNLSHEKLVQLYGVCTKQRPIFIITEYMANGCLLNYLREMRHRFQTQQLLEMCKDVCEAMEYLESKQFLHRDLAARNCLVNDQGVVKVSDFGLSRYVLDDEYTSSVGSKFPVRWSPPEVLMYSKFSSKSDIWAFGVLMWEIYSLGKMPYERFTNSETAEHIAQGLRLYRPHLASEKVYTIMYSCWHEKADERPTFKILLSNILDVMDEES

For `Cc1c(NC(=O)N2CC(OC(C)C)C2)cc(F)cc1-c1ccnc(Nc2ccc(N3CCN(CC4CN(c5ccc6c(c5)C(=O)N(C5CCC(=O)NC5=O)C6=O)C4)CC3)cc2)n1` (stereo not shown) [Example 27, N-(3-(2-((4-(4-((1-(2-(2,6-dioxopiperidin-3-yl)-1,3-dioxoisoindolin-5-yl)azetidin-3-yl)methyl)piperazin-1-yl)phenyl)amino)pyrimidin-4-yl)-5-fluoro-2-methylphenyl)-3-isopropoxyazetidine-1-carboxamide], the “BTK degradation (%) 1 nM” value was 26.5%, the “BTK degradation (%) 10 nM” value was 71.5% and the “BTK degradation (%) 100 nM” value was 94.5%.

With `Cc1c(NC(=O)N2CC(OC(C)C)C2)cc(F)cc1-c1ccnc(Nc2ccc(N3CCN(CC4CN(c5ccc6c(n5)CN(C5CCC(=O)NC5=O)C6=O)C4)CC3)cc2)n1` (stereo not shown) [Example 108, N-(3-(2-((4-(4-((1-(6-(2,6-dioxopiperidin-3-yl)-5-oxo-6,7-dihydro-5H-pyrrolo[3,4-b]pyridin-2-yl)azetidin-3-yl)methyl)piperazin-1-yl)phenyl)amino)pyrimidin-4-yl)-5-fluoro-2-methylphenyl)-3-isopropoxyazetidine-1-carboxamide] the “BTK degradation (%) 1 nM” value was 21.5%, the “BTK degradation (%) 10 nM” value was 73% and the “BTK degradation (%) 100 nM” value was 94.5%.

For `Cc1cc(-c2ccnc(Nc3ccc(N4CCC(CN5CCN(c6cccc(NC7CCC(=O)NC7=O)c6)CC5)CC4)cc3)n2)ccc1CNC(=O)N1CC(OC(C)C)C1` (stereo not shown) [Example 120, N-(4-(2-((4-(4-((4-(3-((2,6-dioxopiperidin-3-yl)amino)phenyl)piperazin-1-yl)methyl)piperidin-1-yl)phenyl)amino)pyrimidin-4-yl)-2-methylbenzyl)-3-isopropoxyazetidine-1-carboxamide], the “BTK degradation (%) 1 nM” value was 18.5%, the “BTK degradation (%) 10 nM” value was 91.5% and the “BTK degradation (%) 100 nM” value was 99.5%.

For `Cc1cc(-c2ccnc(Nc3ccc(N4CCN(CC5CN(c6ccc7c(c6)C(=O)N(C6CCC(=O)NC6=O)C7=O)C5)CC4)cc3)n2)ccc1CNC(=O)c1cnn(C(C)C)c1` (stereo not shown) [Example 34, N-(4-(2-((4-(4-((1-(2-(2,6-dioxopiperidin-3-yl)-1,3-dioxoisoindolin-5-yl)azetidin-3-yl)methyl)piperazin-1-yl)phenyl)amino)pyrimidin-4-yl)-2-methylbenzyl)-1-isopropyl-1H-pyrazole-4-carboxamide], the “BTK degradation (%) 1 nM” value was 41%, the “BTK degradation (%) 10 nM” value was 90% and the “BTK degradation (%) 100 nM” value was 99.5%.

`Cc1cc(-c2ccnc(Nc3ccc(C4CCN(CC5CN(c6ccc7c(c6)C(=O)N(C6CCC(=O)NC6=O)C7=O)C5)CC4)cc3)n2)ccc1CNC(=O)c1cnn(C(C)(C)C)c1` (stereo not shown) [Example 45, 1-(tert-butyl)-N-(4-(2-((4-(1-((1-(2-(2,6-dioxopiperidin-3-yl)-1,3-dioxoisoindolin-5-yl)azetidin-3-yl)methyl)piperidin-4-yl)phenyl)amino)pyrimidin-4-yl)-2-methylbenzyl)-1H-pyrazole-4-carboxamide] was tested, and the “BTK degradation (%) 1 nM” value was 45.5%, the “BTK degradation (%) 10 nM” value was 89.5% and the “BTK degradation (%) 100 nM” value was 98.0%.

With `Cc1cc(-c2ccnc(Nc3ccc(CN4CCN(CC5CCN(c6cccc(N7CCC(=O)NC7=O)c6)CC5)CC4)cc3)n2)ccc1CNC(=O)c1cn(C(C)(C)C)nn1` [Example 74, 1-(tert-butyl)-N-(4-(2-((4-((4-((1-(3-(2,4-dioxotetrahydropyrimidin-1 (2H)-yl)phenyl)piperidin-4-yl)methyl)piperazin-1-yl)methyl)phenyl)amino)pyrimidin-4-yl)-2-methylbenzyl)-1H-1,2,3-triazole-4-carboxamide] the “BTK degradation (%) 1 nM” value was 43.0%, the “BTK degradation (%) 10 nM” value was 91.5% and the “BTK degradation (%) 100 nM” value was 96.5%.

For `Cc1cc(-c2ccnc(Nc3cnn(C4CCN(CC5CCN(c6ccc7c(c6)C(=O)N(C6CCC(=O)NC6=O)C7=O)CC5)CC4)c3)n2)ccc1CNC(=O)c1cnn(C(C)C)c1` (stereo not shown) [Example 35, N-(4-(2-((1-(1-((1-(2-(2,6-dioxopiperidin-3-yl)-1,3-dioxoisoindolin-5-yl)piperidin-4-yl)methyl)piperidin-4-yl)-1H-pyrazol-4-yl)amino)pyrimidin-4-yl)-2-methylbenzyl)-1-isopropyl-1H-pyrazole-4-carboxamide], the “BTK degradation (%) 1 nM” value was 50.5%, the “BTK degradation (%) 10 nM” value was 93.5% and the “BTK degradation (%) 100 nM” value was 99.5%.

For `Cc1cc(-c2ccnc(Nc3cnn(C4CCN(CC5CCN(C(=O)c6cccc(NC7CCC(=O)NC7=O)c6)CC5)CC4)c3)n2)ccc1CNC(=O)N1CC(OC(C)C)C1` (stereo not shown) [Example 91, N-(4-(2-((1-(1-((1-(3-((2,6-dioxopiperidin-3-yl)amino)benzoyl)piperidin-4-yl)methyl)piperidin-4-yl)-1H-pyrazol-4-yl)amino)pyrimidin-4-yl)-2-methylbenzyl)-3-isopropoxyazetidine-1-carboxamide], the “BTK degradation (%) 1 nM” value was 4.5%, the “BTK degradation (%) 10 nM” value was 68.5% and the “BTK degradation (%) 100 nM” value was 95.0%.

For `Cc1cc(-c2ccnc(Nc3ccc(N4CCN(CC5CCN(CC(=O)Nc6cccc(NC7CCC(=O)NC7=O)c6)CC5)CC4)cc3)n2)ccc1CNC(=O)N1CC(OC(C)C)C1` (stereo not shown) [Example 105, N-(4-(2-((4-(4-((1-(2-((3-((2,6-dioxopiperidin-3-yl)amino)phenyl)amino)-2-oxoethyl)piperidin-4-yl)methyl)piperazin-1-yl)phenyl)amino)pyrimidin-4-yl)-2-methylbenzyl)-3-isopropoxyazetidine-1-carboxamide], the “BTK degradation (%) 1 nM” value was 35%, the “BTK degradation (%) 10 nM” value was 91.5% and the “BTK degradation (%) 100 nM” value was 98%.

For `Cc1cc(-c2ccnc(Nc3ccc(N4CCN(CC5CCN(c6cc7c(cc6F)C(=O)N(C6CCC(=O)NC6=O)C7=O)CC5)CC4)cc3)n2)ccc1CNC(=O)N1CC(OC(C)C)C1` (stereo not shown) [Example 12, N-(4-(2-((4-(4-((1-(2-(2,6-dioxopiperidin-3-yl)-6-fluoro-1,3-dioxoisoindolin-5-yl)piperidin-4-yl)methyl)piperazin-1-yl)phenyl)amino)pyrimidin-4-yl)-2-methylbenzyl)-3-isopropoxyazetidine-1-carboxamide], the “BTK degradation (%) 1 nM” value was 23.5%, the “BTK degradation (%) 10 nM” value was 84.5% and the “BTK degradation (%) 100 nM” value was 98.5%.

In the case of `Cc1cc(-c2ccnc(Nc3ccc4c(c3)CN(CC3CCN(c5ccc6c(c5)C(=O)N(C5CCC(=O)NC5=O)C6=O)CC3)CC4)n2)ccc1CNC(=O)c1cnn(C(C)(C)C)c1` (stereo not shown) [Example 2, 1-(tert-butyl)-N-(4-(2-((2-((1-(2-(2,6-dioxopiperidin-3-yl)-1,3-dioxoisoindolin-5-yl)piperidin-4-yl)methyl)-1,2,3,4-tetrahydroisoquinolin-7-yl)amino)pyrimidin-4-yl)-2-methylbenzyl)-1H-pyrazole-4-carboxamide], the “BTK degradation (%) 10 nM” value is reported as 84.5% and the “BTK degradation (%) 100 nM” value is reported as 94%.

`Cc1cc(-c2ccnc(Nc3ccc(N4CCN(CC5CCN(c6cccc(N7CCC(=O)NC7=O)c6)CC5)CC4)cc3)n2)ccc1CNC(=O)N1CC(OC(C)C)C1` [Example 65, N-(4-(2-((4-(4-((1-(3-(2,4-dioxotetrahydropyrimidin-1 (2H)-yl)phenyl)piperidin-4-yl)methyl)piperazin-1-yl)phenyl)amino)pyrimidin-4-yl)-2-methylbenzyl)-3-isopropoxyazetidine-1-carboxamide] was tested, and the “BTK degradation (%) 1 nM” value was 32.5%, the “BTK degradation (%) 10 nM” value was 92.0% and the “BTK degradation (%) 100 nM” value was 99.0%.

`Cc1cc(-c2ccnc(Nc3ccc(N4CCN(CC5CCN(c6ccc(NC7CCC(=O)NC7=O)cn6)CC5)CC4)cc3)n2)ccc1CNC(=O)c1cn(C(C)(C)C)nn1` (stereo not shown) [Example 62] was tested, and the “BTK degradation (%) 1 nM” value was 57.0%, the “BTK degradation (%) 10 nM” value was 97.5% and the “BTK degradation (%) 100 nM” value was 100.0%.

With `Cc1cc(-c2ccnc(Nc3ccc(N4CCN(CC5CCN(c6ccc7c(c6)C(=O)N(C6CCC(=O)NC6=O)C7=O)CC5)CC4)cc3)n2)ccc1CNC(=O)N1CC(OC(C)C)C1` (stereo not shown) [Example 7, N-(4-(2-((4-(4-((1-(2-(2,6-dioxopiperidin-3-yl)-1,3-dioxoisoindolin-5-yl)piperidin-4-yl)methyl)piperazin-1-yl)phenyl)amino)pyrimidin-4-yl)-2-methylbenzyl)-3-isopropoxyazetidine-1-carboxamide] the “BTK degradation (%) 10 nM” value was 90% and the “BTK degradation (%) 100 nM” value was 98.5%.

`Cc1cc(-c2ccnc(Nc3ccc(N4CCC(CN5CCC(c6ccc(NC7CCC(=O)NC7=O)cc6)CC5)CC4)cc3)n2)ccc1CNC(=O)c1cnn(C(C)C)c1` (stereo not shown) [Example 134, N-(4-(2-((4-(4-((4-(4-((2,6-dioxopiperidin-3-yl)amino)phenyl)piperidin-1-yl)methyl)piperidin-1-yl)phenyl)amino)pyrimidin-4-yl)-2-methylbenzyl)-1-isopropyl-1H-pyrazole-4-carboxamide] was tested, and the “BTK degradation (%) 1 nM” value was 58.5%, the “BTK degradation (%) 10 nM” value was 93.5% and the “BTK degradation (%) 100 nM” value was 98.5%.

With `Cc1cc(-c2ccnc(Nc3ccc(N4CCN(CC5CCN(c6cccc(N7CCC(=O)NC7=O)c6)CC5)CC4)cc3)n2)ccc1CNC(=O)c1cn(C(C)(C)C)nn1` [Example 70, 1-(tert-butyl)-N-(4-(2-((4-(4-((1-(3-(2,4-dioxotetrahydropyrimidin-1 (2H)-yl)phenyl)piperidin-4-yl)methyl)piperazin-1-yl)phenyl)amino)pyrimidin-4-yl)-2-methylbenzyl)-1H-1,2,3-triazole-4-carboxamide] the “BTK degradation (%) 1 nM” value was 67.0%, the “BTK degradation (%) 10 nM” value was 97.5% and the “BTK degradation (%) 100 nM” value was 99.5%.

`Cc1cc(-c2ccnc(Nc3ccc(C4CN(CC5CCN(C(=O)c6cccc(NC7CCC(=O)NC7=O)c6)CC5)C4)cc3)n2)ccc1CNC(=O)N1CC(OC(C)C)C1` (stereo not shown) [Example 101, N-(4-(2-((4-(1-((1-(3-((2,6-dioxopiperidin-3-yl)amino)benzoyl)piperidin-4-yl)methyl)azetidin-3-yl)phenyl)amino)pyrimidin-4-yl)-2-methylbenzyl)-3-isopropoxyazetidine-1-carboxamide] was tested, and the “BTK degradation (%) 1 nM” value was 50.5%, the “BTK degradation (%) 10 nM” value was 98.0% and the “BTK degradation (%) 100 nM” value was 100.0%.
